Measurements reported in US20250171459A1, “2-METHYL-4',5'-DIHYDROSPIRO[PIPERIDINE-4,7'-THIENO[2,3-C]PYRAN] DERIVATIVES AS INHIBITORS OF APOL1 AND METHODS OF USING SAME” (Vertex Pharmaceuticals Incorporated, priority 2022, published 2025).

What follows are compounds tested against T1, APOL1 (Homo sapiens, UniProt O14791) (assay: MultiTox-Fluor Multiplex Cytotoxicity Assay in tet-inducible APOL1 T-REx-HEK293 cells (cell rescue, ratio of dead to live cells)). Settings: tet-inducible transgenic APOL1 T-REx-HEK293 cell lines, 50 ng/mL tet, 24 hours; read-out: IP50 (i.e., IC50 for cell proliferation).
T1 sequence (O14791 1-398 S342G/I384M): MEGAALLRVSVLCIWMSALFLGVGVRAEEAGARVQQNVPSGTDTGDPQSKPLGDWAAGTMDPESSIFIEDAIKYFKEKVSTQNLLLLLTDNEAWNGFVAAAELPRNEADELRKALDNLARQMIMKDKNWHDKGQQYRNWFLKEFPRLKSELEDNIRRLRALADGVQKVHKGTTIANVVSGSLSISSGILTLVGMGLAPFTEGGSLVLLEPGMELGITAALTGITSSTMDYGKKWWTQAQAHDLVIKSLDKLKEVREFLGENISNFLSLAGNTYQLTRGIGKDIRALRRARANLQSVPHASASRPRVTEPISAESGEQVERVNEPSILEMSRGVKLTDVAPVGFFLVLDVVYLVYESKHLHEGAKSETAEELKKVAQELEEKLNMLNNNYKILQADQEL
Assay type: cell-based
Description: The MultiTox-Fluor Multiplex Cytotoxicity Assay is a single-reagent-addition, homogeneous, fluorescence assay that measures the number of live and dead cells simultaneously in culture wells. The assay measures cell viability and cytotoxicity by detecting two distinct protease activities. […] The substrate enters intact cells, where it is cleaved to generate a fluorescent signal proportional to the number of living cells. […] A ratio of dead to live cells is used to normalize data.
The MultiTox reagent was added to each well and placed back in the incubator for an additional 30 minutes. The plate was read on the EnVision plate reader. A ratio of dead to live cells was used to normalize, and data was imported, analyzed, and fit using Genedata Screener (Basel, Switzerland) software. Data was normalized using percent of control, no tet (100% viability), and 50 ng/mL tet treated (0% viability), and fit using Smart Fit. The reagents, methods, and complete protocol for the MultiTox assay are described below.
Cells were washed with DPBS and then trypsinized to dissociate from the flask. Media was used to quench the trypsin, cells were then pelleted at 200 g and resuspended in fresh cell assay media (DMEM, 2% Tet-free FBS, 2 mM L-glutamine, 100 Units/mL penicillin-streptomycin). […] The plates were then incubated at room temperature for one hour.
Tetracycline is needed to induce APOL1 expression. 1 mg/mL tet stock in water was diluted to 250 ng/mL (5×) in cell assay media.
Compounds were dispensed at 200 nL in DMSO. The final top concentration was 10 μM with a 10 point 3-fold dilution in duplicate in the MultiTox assay.
20 μL was transferred from the 5× tet plate to the ARP and mixed, then 5 μL of 5× tet and the compounds were transferred to the cell plate and mixed using the Bravo. The cell plate was placed in the humidified 37° C. 5% CO2 incubator for 24 hours.
The MultiTox-Fluor Multiplex Cytotoxicity Assay was performed in accordance with the manufacturer's protocol. After cells were incubated with tet and compound for 24 hours, 25 μL of 1× MultiTox reagent was added to each well using the Multidrop dispenser; the plates were placed on a plate shaker (600 rpm) for 2 minutes, then centrifuged briefly and placed back in the 37° C. incubator for 30 minutes. The cell viability (excitation: 400 nm, emission: 486 nm) and cytotoxicity (excitation: 485 nm, emission: 535 nm) were read using the EnVision plate reader. A ratio of dead (cytotoxicity) to live (viability) cells was reported. Data was exported and analyzed in Genedata. Data was normalized using percent of control, no tet (100% viability), and 50 ng/mL tet treated (0% viability), and fit using Smart Fit settings in Genedata.
`C[C@H]1C[C@@]2(CCN1Cc1cnn(CCS(C)(=O)=O)c1)OCCc1cc(C#N)sc12` [Compound 1035, (2′S,7R)-2′-methyl-1′-[[1-(2-methylsulfonylethyl)pyrazol-4-yl]methyl]spiro[4,5-dihydrothieno[2,3-c]pyran-7,4′-piperidine]-2-carbonitrile] was tested, and the IC50 was < 0.1 µM. `CCc1cc2c(s1)CCO[C@@]21CCN(Cc2cn(C3CCN(S(C)(=O)=O)C3)nn2)[C@@H](C)C1` (stereo partly drawn) [Compound 30] showed an IC50 of 0.1 to 0.5 µM. For `CCc1cc2c(s1)CCO[C@@]21CCN(C[C@H]2C[C@@H](NC(=O)CNS(=O)(=O)CC)C2)[C@@H](C)C1` [Compound 353], the IC50 was < 0.1 µM. In the case of `CCc1cc2c(s1)CCOC21CCN(Cc2cn(C3CCN(C(C)=O)CC3)nn2)CC1` [Compound 1116], the IC50 is reported as 0.5 to 1 µM. Work on `CCc1cc2c(s1)CCOC21CCN(Cc2cnn(CCS(=O)(=O)N(C)C)c2)CC1` [Compound 1131] yielded an IC50 of 0.1 to 0.5 µM. `CCc1cc2c(s1)CCO[C@@]21CCN(C[C@H]2C[C@@H](NC(=O)C3CCc4ccccc4O3)C2)[C@H](C)C1` (stereo in doubt) [Compound 332] showed an IC50 of 0.1 to 0.5 µM. In the case of `C[C@H]1C[C@@]2(CCN1Cc1cnn(CCS(C)(=O)=O)c1)OCC(O)c1cc(Cl)sc12` (single isomer, unassigned) [Compound 768], the IC50 is reported as < 0.1 µM. In the case of `CCc1cc2c(s1)CCO[C@@]21CCN(Cc2cnc(OCC(C)(C)N)nc2)[C@@H](C)C1` [Compound 208], the IC50 is reported as < 0.1 µM. In the case of `CCc1cc2c(s1)CCO[C@@]21CCN(CC2CN(C(=O)CC3CCS(=O)(=O)C3)C2)[C@@H](C)C1` (stereo partly drawn) [Compound 465], the IC50 is reported as < 0.1 µM. `CCc1cc2c(s1)CCO[C@]21CCN(Cc2cn(CCS(C)(=O)=O)nn2)[C@H](C)C1` [Compound 10, (2′R,4S)-2-ethyl-2′-methyl-1′-[[1-(2-methylsulfonylethyl)triazol-4-yl]methyl]spiro[6,7-dihydrothieno[3,2-c]pyran-4,4′-piperidine]] gave an IC50 of 0.5 to 1 µM. With `CCc1cc2c(s1)CCOC21CCN(CC2CCN(C(=O)OC(C)(C)C)CC2)CC1` [Compound 1150] the IC50 was 0.5 to 1 µM. With `CC(O)c1c(C(F)(F)F)sc2c1CCO[C@@]21CCN(Cc2cnn(CCS(C)(=O)=O)c2)[C@@H](C)C1` (stereo partly drawn) [Compound 879] the IC50 was < 0.1 µM. `CCc1cc2c(s1)CCO[C@@]21CCN(C[C@H]2C[C@@H](NC(=O)C3(O)CC(O)C3)C2)[C@@H](C)C1` (stereo partly drawn) [Compound 357] was tested, and the IC50 was < 0.1 µM. `C[C@H]1C[C@@]2(CCN1Cc1cnn(C)c1)OCCc1cc(CC(F)F)sc12` [Compound 565] was tested, and the IC50 was < 0.1 µM. `CCc1cc2c(s1)CCO[C@@]21CCN(C[C@H]2C[C@@H](NC(=O)[C@H]3CCCO3)C2)[C@@H](C)C1` [Compound 368] gave an IC50 of 0.1 to 0.5 µM. `CCc1cc2c(s1)CCO[C@@]21CCN(Cc2cn(CC(C)n3cncn3)nn2)[C@@H](C)C1` (stereo partly drawn) [Compound 58] showed an IC50 of 0.1 to 0.5 µM. In the case of `C[C@H]1C[C@@]2(CCN1CC(O)C(F)(F)F)OCCc1cc(CC(F)F)sc12` (stereo partly drawn) [Compound 601], the IC50 is reported as < 0.1 µM. `CCc1cc2c(s1)CCOC21CCN(Cc2cn(CCS(=O)(=O)C3CC3)nn2)CC1` [Compound 1086] was tested, and the IC50 was 0.5 to 1 µM. For `C[C@H]1C[C@@]2(CCN1Cc1ccc(NS(C)(=O)=O)cc1)OCCc1cc(Cl)sc12` [Compound 638], the IC50 was < 0.1 µM. For `CNC(=O)C(C)(O)Cn1cc(CN2CC[C@]3(C[C@@H]2C)OCCc2c3sc(C(F)(F)F)c2CO)cn1` (stereo partly drawn) [Compound 990, 2-Hydroxy-3-[4-[[(2′S, 7R)-3-(hydroxymethyl)-2′-methyl-2-(trifluoromethyl)spiro[4,5-dihydrothieno[2,3-c]pyran-7,4′-piperidine]-1′-yl]methyl]pyrazol-1-yl]-N,2-dimethyl-propanamide], the IC50 was < 0.1 µM. `C[C@H]1C[C@@]2(CCN1Cc1cnn(CCS(C)(=O)=O)c1)OCC(O)(C(F)(F)F)c1cc(Cl)sc12` (stereo partly drawn) [Compound 852, (2′S,7R)-2-chloro-2′-methyl-1′-[[1-(2-methylsulfonylethyl)pyrazol-4-yl]methyl]-4-(trifluoromethyl)spiro[5H-thieno[2,3-c]pyran-7,4′-piperidine]-4-ol] was tested, and the IC50 was < 0.1 µM. `C[C@H]1C[C@@]2(CCN1Cc1cnn(CCO)c1)OCCc1cc(Cl)sc12` [Compound 632] was tested, and the IC50 was < 0.1 µM. For `CCc1cc2c(s1)CCO[C@@]21CCN(Cc2cn(Cc3c[nH]nc3C)nn2)[C@@H](C)C1` [Compound 57], the IC50 was < 0.1 µM. Work on `Cc1cncc(CN2CC[C@]3(C[C@@H]2C)OCCc2cc(Cl)sc23)c1` [Compound 649] yielded an IC50 of 0.1 to 0.5 µM. With `C[C@H]1C[C@@]2(CCN1Cc1cccc(OCCO)c1)OC[C@H](O)c1cc(Cl)sc12` [Compound 803] the IC50 was 0.1 to 0.5 µM. Work on `CCc1cc2c(s1)CCO[C@@]21CCN(Cc2ncco2)[C@@H](C)C1` [Compound 284] yielded an IC50 of 0.5 to 1 µM. `CCc1cc2c(s1)CCO[C@@]21CCN(Cc2cn(CCn3ccnc3)nn2)[C@@H](C)C1` [Compound 31] gave an IC50 of 0.1 to 0.5 µM. For `CCc1cc2c(s1)CCO[C@@]21CCN(Cc2cn(C3CN(S(=O)(=O)CCO)C3)nn2)[C@@H](C)C1` [Compound 1, 2-[3-[4-[[(2′S,4R)-2-ethyl-2′-methyl-spiro[6,7-dihydrothieno[3,2-c]pyran-4,4′-piperidine]-1′-yl]methyl]triazol-1-yl]azetidin-1-yl]sulfonylethanol], the IC50 was < 0.1 µM. `C[C@H]1C[C@@]2(CCN1Cc1cnn(C)c1)OCCc1cc(C(C)(C)C)sc12` [Compound 1020, (2S,4R)-2′-(tert-butyl)-2-methyl-1-((1-methyl-1H-pyrazol-4-yl)methyl)-4′,5′-dihydrospiro[piperidine-4,7′-thieno[2,3-c]pyran]] gave an IC50 of 0.5 to 1 µM. `C[C@H]1C[C@@]2(CCN1Cc1ccc(F)cn1)OCCc1c2sc(Cl)c1CO` [Compound 726] showed an IC50 of 0.5 to 1 µM. In the case of `CCc1cc2c(s1)CCOC21CCN(Cc2cn(CC(O)C(C)(C)O)nn2)C(C)C1` (stereo not drawn) [Compound 124], the IC50 is reported as < 0.1 µM. With `CCc1cc2c(s1)CCO[C@@]21CCN(C[C@H]2C[C@@H](NS(=O)(=O)C3CC3)C2)[C@@H](C)C1` [Compound 390] the IC50 was < 0.1 µM. With `CCc1cc2c(s1)CCOC21CCN(Cc2cn(C3CC(O)C3(C)C)nn2)CC1` (stereo not drawn) [Compound 1094] the IC50 was 0.5 to 1 µM. For `CCc1cc2c(s1)CCO[C@@]21CCN(Cc2cn(CC(C)(CO)CO)nn2)[C@@H](C)C1` [Compound 134], the IC50 was < 0.1 µM. For `CCc1cc2c(s1)CCO[C@@]21CCN(CC2CN(C(=O)C3COCCO3)C2)[C@@H](C)C1` (stereo partly drawn) [Compound 440], the IC50 was < 0.1 µM. For `CCc1cc2c(s1)CCO[C@@]21CCN(Cc2cnc(N[C@H]3CCNC3=O)nc2)[C@@H](C)C1` [Compound 207], the IC50 was < 0.1 µM. For `CCc1cc2c(s1)CCO[C@@]21CCN(C[C@H]2C[C@@H](NC(=O)OC)C2)[C@@H](C)C1` [Compound 302, methyl N-[3-[[(2′S,4R)-2-ethyl-2′-methyl-spiro[6,7-dihydrothieno[3,2-c]pyran-4,4′-piperidine]-1′-yl]methyl]cyclobutyl]carbamate], the IC50 was < 0.1 µM. `CCc1cc2c(s1)CCO[C@@]21CCN(C[C@H]2C[C@@H](NC(=O)C(O)C(C)C)C2)[C@@H](C)C1` (stereo partly drawn) [Compound 319] was tested, and the IC50 was < 0.1 µM. With `CCc1cc2c(s1)CCO[C@@]21CCN(CC2CN(C(=O)C3CC(=O)NC3=O)C2)[C@@H](C)C1` (stereo partly drawn) [Compound 472] the IC50 was < 0.1 µM. With `C[C@H]1C[C@@]2(CCN1Cc1ccc(OCCO)cc1)OCCc1cc(Cl)sc12` [Compound 644] the IC50 was < 0.1 µM. With `CCc1cc2c(s1)CCO[C@@]21CCN(C[C@H]2C[C@@H](NC(=O)Cc3cc(C)cc(F)c3)C2)[C@@H](C)C1` [Compound 313] the IC50 was < 0.1 µM. For `C[C@H]1C[C@@]2(CCN1CCCO)OCCc1cc(CC(F)F)sc12` [Compound 615], the IC50 was 0.1 to 0.5 µM. `CCc1cc2c(s1)CCO[C@@]21CCN(Cc2cn(CCCS(C)(=O)=O)nn2)[C@@H](C)C1` [Compound 183] was tested, and the IC50 was < 0.1 µM. Work on `CCc1cc2c(s1)CCO[C@@]21CCN(Cc2cn(Cc3nnc[nH]3)nn2)[C@@H](C)C1` [Compound 65] yielded an IC50 of 0.1 to 0.5 µM. `CCc1cc2c(s1)CCO[C@@]21CCN(CC2CNC2)[C@@H](C)C1` [Compound 421, (2′S,4R)-1′-(azetidin-3-ylmethyl)-2-ethyl-2′-methyl-spiro[6,7-dihydrothieno[3,2-c]pyran-4,4′-piperidine]] was tested, and the IC50 was 0.5 to 1 µM.
